Test results taken from patent publication US20210380606A1, “5-AZAINDAZOLE DERIVATIVES AS ADENOSINE RECEPTOR ANTAGONISTS” (Merck Patent GmbH, priority 2018, published 2021).
Read-outs that look alike come from different tables or passages of the source.

How the values were obtained:
Format in all cases: cell-based
human A2A receptors = target: T1, human A2A receptors (Homo sapiens, UniProt P29274); assay: Functional human A2A receptor activity, recombinant HEK293 cells, cAMP (HTRF)
T1 construct: expressed in transfected cells; host or cells: HEK293
T1 sequence (P29274 whole entry): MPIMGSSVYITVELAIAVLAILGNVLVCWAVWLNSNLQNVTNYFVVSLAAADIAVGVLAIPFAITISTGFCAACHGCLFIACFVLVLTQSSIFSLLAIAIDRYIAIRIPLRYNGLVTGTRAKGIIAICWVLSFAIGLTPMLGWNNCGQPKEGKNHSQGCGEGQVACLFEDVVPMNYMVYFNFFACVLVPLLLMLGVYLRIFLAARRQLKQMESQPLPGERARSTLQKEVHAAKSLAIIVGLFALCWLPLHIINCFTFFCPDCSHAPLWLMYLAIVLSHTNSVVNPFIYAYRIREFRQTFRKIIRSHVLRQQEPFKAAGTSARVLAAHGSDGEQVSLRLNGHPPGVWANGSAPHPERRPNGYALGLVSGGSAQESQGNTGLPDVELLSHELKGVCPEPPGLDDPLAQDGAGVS
Procedure, shortened: (§1)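 Read-out is cellular cAMP measured by HTRF, added once a 15 min incubation had ended. cAMP reflects adenosine receptor signalling as the second messenger.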

human A2B receptors = target: T2, human A2B receptors (Homo sapiens, UniProt P29275); assay: Functional human A2B receptor activity, recombinant HEK293 cells, cAMP (HTRF)
T2 construct: expressed in transfected cells; host or cells: HEK293
T2 sequence (P29275 1-332): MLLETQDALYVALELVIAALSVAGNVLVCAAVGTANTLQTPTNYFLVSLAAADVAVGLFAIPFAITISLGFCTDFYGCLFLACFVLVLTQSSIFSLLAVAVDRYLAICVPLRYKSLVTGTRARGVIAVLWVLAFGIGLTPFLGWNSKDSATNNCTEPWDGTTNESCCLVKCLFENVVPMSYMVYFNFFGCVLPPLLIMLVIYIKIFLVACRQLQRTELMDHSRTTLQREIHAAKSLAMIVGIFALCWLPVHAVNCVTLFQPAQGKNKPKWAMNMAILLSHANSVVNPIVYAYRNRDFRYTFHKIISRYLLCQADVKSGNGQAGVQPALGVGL
Procedure, shortened: as §1

[1] = target: T3, Gs-coupled human A2A receptor (Homo sapiens, UniProt P29274); assay: Human T cell assay, endogenous A2A receptor, cAMP (HTRF)
T3 construct: The endogenous functional activity of the Gs-coupled human A2A receptor was measured in T cells; endogenous in cells; host or cells: human pan T cells isolated from PBMC of fresh whole blood
T3 sequence (P29274 whole entry): as the sequence (P29274 whole entry) above
Protocol: The endogenous functional activity of the Gs-coupled human A2A receptor was measured in T cells, where this receptor is highly expressed. Determination of receptor activity was done by quantification of cAMP, which is a second messenger for adenosine receptors.
In short, human pan T cells were isolated from human PBMC (MACS Pan T Cell Isolation Kit, Miltenyi Biotec) that have been derived from fresh whole blood. The T cells were seeded in 384-well microtiter plates and treated with test compounds. […] Finally, HTRF reagents (cAMP Femto Kit, CisBio) were added to the wells, and after 1 h cellular cAMP levels were determined using the ENVISION (Perkin Elmer) plate reader.
The obtained raw data were normalized against the inhibitor control and the neutral control (DMSO) and the normalized data were fitted using Genedata Screener software.

Human T cell = Human T cell IL-2; settings: human T cells
mouse Pan T cells = assay: Mouse T cell IL-2 rescue from NECA (CD3/CD28-activated Pan T cells, ELISA); settings: 24 h
Text: Adenosine (Ado) in tumor microenvironment can inhibit T cell activity by signaling through A2A receptors and suppress cytokine secretion by T cells. […] Potential A2A antagonists or A2A/A2B dual antagonists can rescue T cells from this inhibition. Herein, we describe the in vitro system we established using Pan T cells from mouse spleens to screen potential A2A antagonists or A2A/A2B dual antagonists for their activity. The method described involves the use of CD3/CD28 pre-coated beads to stimulate Pan T cells purified from mouse splenocytes, combined with the addition of A2A agonist along with potential A2A or A2A/A2B dual antagonists to evaluate potentiation of T cell cytokine production.
Briefly, mouse Pan T cells are purified from spleens of BALB/c mice using Pan T cell isolation kit Mouse II (MACS Miltenyi biotech Cat #Order no. 130-095-130) according to manufacturer's protocol. The purified T cells are seeded in Nunc™ 96-Well Polystyrene Round Bottom Microwell Plates in RPMI medium with 10% heat inactivated fetal bovine serum. The cells are rested at 37° C. for 1 h before activating with CD3/CD28 pre-coated beads (Dynabeads™ Mouse T-Activator CD3/CD28; Cat #11456D). After 30 min the cells are treated with varying doses of test antagonist(s). […] After 24 h incubation IL-2 levels in the supernatants are measured by ELISAs according to manufacturer's protocol (R&D systems Cat #DY402 (IL-2)). Once the concentrations are calculated, the difference of cytokine concentration of DMSO control and agonist alone control is calculated and the percentage of rescue by each concentration of antagonist is calculated by using Microsoft Excel. These percentages of cytokine rescue in a dose dependent manner of antagonist is plotted in GraphPad Prism software and IC50 is calculated.

[2] = read-out: Functional A2A receptor activity, HEK293, cAMP, IC50
[3] = read-out: Functional A2B receptor activity HEK293, cAMP IC50

| SMILES | IC50 (human A2A receptors; read-out: A2A (Category)) | IC50 (human A2B receptors; read-out: A2B (Category)) | IC50 [1] | IC50 (Human T cell) | IC50 (mouse Pan T cells) | IC50 (human A2A receptors; [2]) | IC50 (human A2B receptors; [3]) |
| --- | --- | --- | --- | --- | --- | --- | --- |
| O=C(c1cc2c(cn1)c(-c1cnc3c(F)cccn13)nn2CC(F)(F)F)N1[C@@H]2CC[C@H]1C[C@@H](O)C2 [Compound 85, [3-(8-fluoroimidazo[1,2-a]pyridin-3-yl)-1-(2,2,2-trifluoroethyl)pyrazolo[4,3-c]pyridin-6-yl]-(3-endo-hydroxy-8-azabicyclo[3.2.1]octan-8-yl)methanone] | < 100 nM | < 100 nM | < 100 nM | < 1000 nM | < 100 nM | – | – |
| O=C(c1cc2c(cn1)c(-c1coc3ccc(F)cc13)nn2CC(F)(F)F)N1CCCOCC1 [Compound 109, [3-(5-fluorobenzofuran-3-yl)-1-(2,2,2-trifluoroethyl)pyrazolo[4,3-c]pyridin-6-yl]-(1,4-oxazepan-4-yl)methanone] | < 100 nM | < 100 nM | < 100 nM | < 100 nM | < 1000 nM | – | – |
| O=C(c1cc2c(cn1)c(-c1coc3ccccc13)nn2CC(F)(F)F)N1CCOCC(O)C1 (stereo not drawn) [Compound 224, [3-(benzofuran-3-yl)-1-(2,2,2-trifluoroethyl)pyrazolo[4,3-c]pyridin-6-yl]-(6-hydroxy-1,4-oxazepan-4-yl)methanone] | < 100 nM | < 100 nM | < 100 nM | < 100 nM | < 1000 nM | – | – |
| O=C(c1cc2c(cn1)c(-c1cnn3ccncc13)nn2CC(F)(F)F)N1CCCCCC1 [Compound 248, Azepan-1-yl-[3-pyrazolo[1,5-a]pyrazin-3-yl-1-(2,2,2-trifluoro-ethyl)-1H-pyrazolo[4,3-c]pyridin-6-yl]-methanone] | < 100 nM | < 1000 nM | – | – | – | – | – |
| O=C(c1cc2c(cn1)c(-c1cnn3ccncc13)nn2CC(F)(F)F)N1CCCOCC1 [Compound 249, 1,4-Oxazepan-4-yl-[3-pyrazolo[1,5-a]pyrazin-3-yl-1-(2,2,2-trifluoro-ethyl)-1H-pyrazolo[4,3-c]pyridin-6-yl]-methanone] | < 100 nM | < 1000 nM | – | – | – | – | – |
| CS(=O)(=O)Cn1nc(-c2cnn3ccncc23)c2cnc(C(=O)N3CCCOCC3)cc21 [Compound 250, (1-Methanesulfonylmethyl-3-pyrazolo[1,5-a]pyrazin-3-yl-1H-pyrazolo[4,3-c]pyridin-6-yl)-(1,4-oxazepan-4-yl)methanone] | < 100 nM | < 1000 nM | – | – | – | – | – |
| O=C(c1cc2c(cn1)c(-n1cnc3ccccc31)nn2CC(F)(F)F)N1CCCOCC1 [Compound 251, [3-(benzimidazol-1-yl)-1-(2,2,2-trifluoroethyl)pyrazolo[4,3-c]pyridin-6-yl]-(1,4-oxazepan-4-yl)methanone] | < 100 nM | < 1000 nM | – | – | – | – | – |
| O=C(c1cc2c(cn1)c(-n1cnc3ccc(F)cc31)nn2CC(F)(F)F)N1CCCOCC1 [Compound 252, [3-(6-fluorobenzimidazol-1-yl)-1-(2,2,2-trifluoroethyl)pyrazolo[4,3-c]pyridin-6-yl]-(1,4-oxazepan-4-yl)methanone] | < 100 nM | < 100 nM | – | – | – | – | – |
| [2H]C1([2H])COCCN(C(=O)c2cc3c(cn2)c(-c2c[nH]c4ccccc24)nn3CC(F)(F)F)C1 [Example 242, (6,6-dideuterio-1,4-oxazepan-4-yl)-[3-(1H-indol-3-yl)-1-(2,2,2-trifluoroethyl)pyrazolo[4,3-c]pyridin-6-yl]methanone] | < 100 nM | < 1000 nM | – | – | – | – | – |
| O=C(c1ccc2c(-c3cnc4ccc(F)cn34)nn(CC(F)(F)F)c2c1)N1CCCCCC1 [analogue to No. 44, reference compound] | – | – | – | – | – | < 100 nM | < 1000 nM |
| O=C(c1ccc2c(-c3cnc4ccc(Cl)cn34)nn(CC(F)(F)F)c2c1)N1CCCCCC1 [analogue to No. 48, reference compound] | – | – | – | – | – | < 100 nM | > 1000 nM |
| O=C(c1ccc2c(-c3cnc4c(F)cc(F)cn34)nn(CC(F)(F)F)c2c1)N1CCCCCC1 [analogue to No. 60, reference compound] | – | – | – | – | – | < 100 nM | < 1000 nM |
